Experimental data from paper PMC11769286, “Nanoformulation of Polymyxin E Through Complex Coacervation: A Pharmacokinetic Analysis” (Pharmaceutics, 2025).
Converted amounts (≈) assume the structure as drawn. Positions of bridges follow the written chain, without caps; N, C: chain ends. Non-standard residues stand in square brackets, D forms with d. Residues, ends and D or L forms follow the SMILES beside them. *: point of attachment. Heptanoyl(5-Me) = CCC(C)CCCC(=O)*; Dab = NCC[C@H](N)C(=O)O

Tests used:
[1] = test system: Acinetobacter baumannii; format: cell-based
Text: (§1) In line with the 2021 edition of the United States Clinical and Laboratory Standards Institute (CLSI) guidelines (https://clsi.org/), we employed the broth microdilution method to determine the MIC of the compounds against clinical Gram-negative bacilli. We tested 23 strains of Escherichia coli, including 12 carbapenem-sensitive and 11 drug-resistant strains, and 22 strains of Klebsiella pneumoniae, including 12 carbapenem-sensitive and 10 drug-resistant strains. Additionally, we assessed 20 strains of Acinetobacter baumannii, again including 10 carbapenem-sensitive and 10 drug-resistant strains, and 21 strains of Pseudomonas aeruginosa. Quality control strains used were Escherichia coli ATCC 25922 and Pseudomonas aeruginosa ATCC 27853 [20]. For the preparation of antimicrobial agents, we dissolved seven batches of the test drug in 3 mL of water and subsequently diluted it to a concentration of 500 mg/L. The control drug was prepared according to CLSI requirements. The antibacterial solutions were tested over a concentration range spanning from 0.015 mg/L to 32 mg/L. We utilized cation-adjusted Mueller–Hinton broth (CAMHB) from BD Company, with lot number 9324795.
(§2) Regarding bacterial inoculation, we selected fresh, pure bacterial colonies from Columbia blood agar using the direct colony suspension method, resulting in a turbidity of 0.5 McFarland units. This suspension was then appropriately diluted, yielding a final bacterial concentration of 10^5 CFU/mL. Culturing conditions involved incubation in ambient air at 35 ± 2 °C for a duration of 16–20 h. Results were interpreted in accordance with the European EUCAST breakpoint criteria, where PME sensitivity was defined as ≤2 mg/L and resistance as ≥4 mg/L. Criteria for assessing other tested drugs were provided by the party commissioning the study. The MIC value represented the minimum drug concentration necessary to inhibit bacterial growth. Data analysis was performed using WHONET 5.6 software for statistical evaluation of the drug susceptibility test results.

[2] = test system: Klebsiella pneumoniae; format: cell-based
Text: as §1, §2

[3] = test system: CD-1 mice; assay: Determination of maximum tolerated dose (MTD); format: in vivo; details: male CD-1 mice, n = 3, tail vein, BID (q8h)
Experimental: CD-1 mice, male, 7–8 weeks old, weighing 25–30 g, were purchased from Shanghai Lingchang Laboratory Animal Co. The mice were grouped into n = 3, and different doses of PME were injected into the tail vein of mice via BID (q8h). HA2 prescription (HA2-2.6, HA2-2 and HA2-1.5) and SOP prescription (SOP-2.6, SOP-2 and SOP-1.5) were used for MTD examination.

[4] = design: species or system SD rats; details: rat, in vivo, iv
[5] = test system: A. Baumannii ATCC BAA-1605; details: 8 mpk BID q12h, tail vein; 24 h after infection
Experimental: CD-1 mice (SPF grade, female, 7 weeks old, 27–29 g) were provided by Zhejiang Weitong Lihua Laboratory Animal Technology Co., Ltd. A. Baumannii ATCC BAA-1605 was provided by Nantong Wuxi Apptec Medical Technology Co., Ltd. (Nanjing, China). Experimental animals were admitted to Wuxi AppTec BSL-2 animal facility and subjected to an adaptation period of at least 3 to 4 days. Immunosuppressed mice with neutrophil deficiency were prepared by intraperitoneal injection of cyclophosphamide (150 mg/kg at day -4; 100 mg/kg at day -1). On day 0, the infected bacterial solution was inoculated by intramuscular injection, and 0.1 mL of the bacterial solution was inoculated into the right thigh of each mouse. At 2 h and 24 h after infection, the PME formulations were administered by tail vein according to the experimental protocol. Animals in the blank group were euthanized 2 h after infection. The right thighs of those mice were collected and homogenized. The diluent was cultured overnight and CFUs were counted the next day. Animals in the negative control group and other treatment groups were euthanized 24 h after infection. […] The diluent was cultured overnight and CFUs were counted the next day. […]
The dosages were calculated based on the weight of the mice, and different dosage levels were achieved by adjusting the drug volume accordingly.

[6] = rat, in vivo
[7] = in vivo; details: SD, rat

CCC(C)CCCC(=O)N[C@@H](CCN)C(=O)N[C@H](C(=O)N[C@@H](CCN)C(=O)N[C@H]1CCNC(=O)[C@H]([C@@H](C)O)NC(=O)[C@H](CCN)NC(=O)[C@H](CCN)NC(=O)[C@H](CC(C)C)NC(=O)[C@@H](CC(C)C)NC(=O)[C@H](CCN)NC1=O)[C@@H](C)O (stereo partly drawn) ({Heptanoyl(5-Me)}-[Dab]T[Dab][Dab][Dab][dL]L[Dab][Dab]T; lactam 4-C)
MIC50 [1]: 0.5 µg/mL (≈ 0.433 µM)
MIC range [1]: 0.5 to 1 µg/mL
MIC50 [2]: 0.5 µg/mL (≈ 0.433 µM)
MTD / tolerated dose [3]: 10 mpk
gastric mucosal bleeding [4]: showed gastric mucosal bleeding
change of bacterial levels [5]: did not increase bacterial levels
intersection point between distribution phase and elimination phase [6]: 0.5 h
AUC(0-inf) [7]: 12300 ± 2120 ng·h/mL
Cmax [7]: 10300 ± 1780 ng/mL
MRT [7]: 1.63 ± 0.15 h
Tmax [7]: 4.8 min
Vd [7]: 0.404 ± 0.0545 L/kg
clearance [7]: 4.16 ± 0.78 mL/min/kg
half-life [7]: 1.33 ± 0.05 h
